Like-named read-outs stand apart in the source and are kept apart here.
How the values were obtained:
[1] = biological target: T1, human OX2 receptor (Homo sapiens, UniProt O43614); experiment: Measurement of orexin type 2 receptor agonist activity (Experimental Example 3; calcium 5 dye, FLIPR Tetra); assay type: cell-based; conditions: compound at 1 μM; CHO cells expressing human OX2 receptor; DMSO = 0%, 10 nM orexin A (human) = 100%
T1 construct: expressed in transfected cells
T1 sequence (O43614 1-444): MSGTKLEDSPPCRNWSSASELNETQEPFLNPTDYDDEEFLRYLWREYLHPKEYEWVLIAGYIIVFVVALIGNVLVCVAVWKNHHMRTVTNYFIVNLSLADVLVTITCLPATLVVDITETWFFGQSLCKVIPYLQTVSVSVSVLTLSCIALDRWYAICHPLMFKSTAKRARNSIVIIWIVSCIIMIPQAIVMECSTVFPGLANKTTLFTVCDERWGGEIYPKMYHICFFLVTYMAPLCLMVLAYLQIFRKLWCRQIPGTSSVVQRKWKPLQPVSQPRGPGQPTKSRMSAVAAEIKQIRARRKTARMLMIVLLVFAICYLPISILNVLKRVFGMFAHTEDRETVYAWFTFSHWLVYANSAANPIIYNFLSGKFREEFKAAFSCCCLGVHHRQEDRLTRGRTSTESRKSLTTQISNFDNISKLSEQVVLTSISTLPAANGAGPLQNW
Experimental: In order to obtain cell clones that stably express human orexin type 2 receptor, human orexin type 2 (residues 1-444, NCBI Reference Sequence: AK314279) was constructed in a pcDNA3.1 (+) vector (Invitrogen) to express in mammalian cells. This plasmid DNA was transfected into CHO-K1 cells by electroporation, and stable clones were obtained by limiting dilution using resistance to G418 as a selection marker.
CHO cells in which human OX2 receptor was forcibly expressed were seeded at 5,000 cells/well into a 384-well black transparent bottom plate (Costar) in 25 ul complete media, and were then incubated at 37° C., 5% CO2 for 1 day. The next day, 25 ul of 2× calcium 5 dye (Molecular Devices) in assay buffer (HBSS (Thermo Fisher Scientific), 20 mM HEPES (Thermo Fisher Scientific), 2.5 mM probenecid). After incubation in a 5% CO2 incubator at 37° C. for 40 minutes, it was incubated at room temperature for another 20 minutes. Add 5 μL/well of the test compound diluted with assay buffer B (HBSS, 20 mM HEPES), using FLIPR Tetra (Molecular Devices) to measure the fluorescence value every 1 second for 1 minute, and then every 2 seconds for 1 minute. It was measured for 1 minute and 40 seconds. The amount of fluorescence value when DMSO is added instead of the test compound is defined as 0%, and the amount of fluorescence value when orexin A (human) (Peptide Institute) with a final concentration of 10 nM is added is defined as 100%. The activity (%) of the test compound was calculated.

| OX2R agonist activity (1 μM, %) [1] [%] | Compound | ring closure, yield of all isomers (from CCS(=O)(=O)N[C@@H]1[C@H](Cc2cccc(Oc3nc(NCC(=O)O)ccc3C)c2F)NCC1(F)F, amide bond, HATU / DIPEA, DMF, 1.74 mM, 25.0 °C, 12.0 h) [%] | ring closure, yield of all isomers (from CCS(=O)(=O)N[C@@H]1[C@H](Cc2cccc(C(F)(F)c3nc(CN)ccc3C)c2F)NCC1(F)F, other bond, CDI/DIPEA, THF, 11.0 mM, 45.0 °C, 16.0 h) [%] | ring closure, yield of all isomers (from CCS(=O)(=O)N[C@@H]1[C@H](Cc2cccc(Cc3nc(O[C@@H](C)C(=O)O)ccc3C)c2F)NCC1(F)F, amide bond, HATU/DIPEA, DMF, 2.83 mM, 25.0 °C, 16.0 h) [%] |
| --- | --- | --- | --- | --- |
| 97 | CCS(=O)(=O)N[C@@H]1[C@@H]2Cc3cccc(c3F)Oc3nc(ccc3C)NCC(=O)N2CC1(F)F [Example 99, N-[(15aS,16R)-17,17,20-trifluoro-7-methyl-1-oxo-2,3,15a,16,17,18-hexahydro-1H,15H-4,8-(azeno)-14,10-(metheno)pyrrolo[1,2-j][1,7,10]oxadiazacyclo-heptadecin-16-yl]ethanesulfonamide] | 13.3 |  |  |
| 84 | CCS(=O)(=O)N[C@@H]1[C@@H]2Cc3cccc(c3F)C(F)(F)c3nc(ccc3C)CNC(=O)N2CC1(F)F [Example 100, N-[(15aS,16R)-9,9,17,17,20-pentafluoro-7-methyl-1-oxo-2,3,15a,16,17,18-hexahydro-1H,9H,15H-4,8-(azeno)-14,10-(metheno)pyrrolo[1,2-c][1,3]diazacycloheptadecin-16-yl]ethanesulfonamide] |  | 30.8 |  |
| 108 | CC(C)S(=O)(=O)N[C@@H]1[C@@H]2Cc3cccc(c3F)Oc3nc(ccc3C(F)F)CNC(=O)N2CC1(F)F [Example 110, N-[(15aS,16R)-7-(difluoromethyl)-17,17,20-trifluoro-1-oxo-2,3,15a,16,17,18-hexahydro-1H,15H-4,8-(azeno)-10,14-(metheno)pyrrolo[1,2-j][1,8,10]oxadiazacyclo-heptadecin-16-yl]propane-2-sulfonamide] |  |  |  |
| 103 | CCS(=O)(=O)N[C@@H]1[C@@H]2Cc3cccc(c3F)Cc3nc(ccc3C)O[C@@H](C)C(=O)N2CC1(F)F [Example 111, N-[(2S,15aS,16R)-17,17,20-trifluoro-2,7-dimethyl-1-oxo-1,2,15a,16,17,18-hexahydro-9H,15H-4,8-(azeno)-10,14-(metheno)pyrrolo[1,2-d][1,4]oxazacycloheptadecin-16-yl]ethanesulfonamide] |  |  | 11.8 |

Source: US20240309016A1, “MACROCYCLIC HETEROCYCLE COMPOUNDS AND USE THEREOF” (TAKEDA PHARMACEUTICAL COMPANY LIMITED, priority 2023, published 2024)
